Assay results from ChEMBL document CHEMBL3991601, “The target landscape of clinical kinase drugs” (Science, 2017).
The source made the active and inactive calls. For most assays here, no stated cut-off is given here; in the data, actives have a measured Kd and inactives only a lower limit.

Columns and labels:
[1] = target: Ephrin type-A receptor 5 (Homo sapiens, UniProt P54756)
[2] = target: T1, Septin-9 (Homo sapiens, UniProt Q9UHD8)
T1 sequence (Q9UHD8 whole entry): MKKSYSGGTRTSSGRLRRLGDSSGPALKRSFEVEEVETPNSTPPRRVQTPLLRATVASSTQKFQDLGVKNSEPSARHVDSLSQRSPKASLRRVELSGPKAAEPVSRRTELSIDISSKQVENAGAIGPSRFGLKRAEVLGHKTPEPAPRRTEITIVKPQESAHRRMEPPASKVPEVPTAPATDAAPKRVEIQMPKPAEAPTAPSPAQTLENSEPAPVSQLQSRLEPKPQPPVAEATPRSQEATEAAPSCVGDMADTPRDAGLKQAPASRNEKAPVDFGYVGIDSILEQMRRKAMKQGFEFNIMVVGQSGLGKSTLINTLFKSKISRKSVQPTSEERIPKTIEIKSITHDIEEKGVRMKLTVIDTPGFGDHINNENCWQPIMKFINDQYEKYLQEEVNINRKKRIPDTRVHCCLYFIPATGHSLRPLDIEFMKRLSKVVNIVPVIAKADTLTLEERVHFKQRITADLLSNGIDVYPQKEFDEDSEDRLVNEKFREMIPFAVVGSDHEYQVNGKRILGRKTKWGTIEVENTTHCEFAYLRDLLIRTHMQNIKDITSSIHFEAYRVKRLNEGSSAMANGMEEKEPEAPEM

[3] = target: Glycogen synthase kinase-3 alpha (Homo sapiens, UniProt P49840)
Chain of Glycogen synthase kinase-3 alpha (P49840 whole entry): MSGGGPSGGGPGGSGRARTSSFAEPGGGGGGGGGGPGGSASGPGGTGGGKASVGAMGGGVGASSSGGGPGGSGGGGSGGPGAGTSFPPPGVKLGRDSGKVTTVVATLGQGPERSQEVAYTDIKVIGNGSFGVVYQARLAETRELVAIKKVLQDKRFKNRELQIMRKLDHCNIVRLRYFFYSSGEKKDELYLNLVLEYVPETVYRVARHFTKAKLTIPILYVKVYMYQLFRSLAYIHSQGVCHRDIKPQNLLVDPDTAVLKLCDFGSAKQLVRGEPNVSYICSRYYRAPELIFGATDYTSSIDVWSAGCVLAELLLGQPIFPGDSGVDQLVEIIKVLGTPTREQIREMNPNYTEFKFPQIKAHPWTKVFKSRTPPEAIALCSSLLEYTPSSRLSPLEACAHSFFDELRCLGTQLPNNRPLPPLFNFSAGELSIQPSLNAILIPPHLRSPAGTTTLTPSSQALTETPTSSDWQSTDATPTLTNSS

[4] = target: Tyrosine-protein kinase CSK (Homo sapiens, UniProt P41240)
Chain of Tyrosine-protein kinase CSK (P41240 whole entry): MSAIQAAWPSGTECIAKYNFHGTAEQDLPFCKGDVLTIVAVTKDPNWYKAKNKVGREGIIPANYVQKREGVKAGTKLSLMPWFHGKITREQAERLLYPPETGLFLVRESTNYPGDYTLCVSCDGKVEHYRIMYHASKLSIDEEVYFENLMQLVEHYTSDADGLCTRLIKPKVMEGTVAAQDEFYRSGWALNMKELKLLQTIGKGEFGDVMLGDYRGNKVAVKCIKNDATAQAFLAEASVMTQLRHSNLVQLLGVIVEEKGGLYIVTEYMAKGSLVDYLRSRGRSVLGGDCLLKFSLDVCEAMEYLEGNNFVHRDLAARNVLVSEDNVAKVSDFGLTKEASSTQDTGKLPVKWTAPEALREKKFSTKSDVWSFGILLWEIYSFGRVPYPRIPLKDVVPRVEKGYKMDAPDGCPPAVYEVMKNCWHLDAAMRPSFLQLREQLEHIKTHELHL

[5] = target: Tyrosine-protein kinase ABL1 (Homo sapiens, UniProt P00519)
Chain of Tyrosine-protein kinase ABL1 (P00519 whole entry): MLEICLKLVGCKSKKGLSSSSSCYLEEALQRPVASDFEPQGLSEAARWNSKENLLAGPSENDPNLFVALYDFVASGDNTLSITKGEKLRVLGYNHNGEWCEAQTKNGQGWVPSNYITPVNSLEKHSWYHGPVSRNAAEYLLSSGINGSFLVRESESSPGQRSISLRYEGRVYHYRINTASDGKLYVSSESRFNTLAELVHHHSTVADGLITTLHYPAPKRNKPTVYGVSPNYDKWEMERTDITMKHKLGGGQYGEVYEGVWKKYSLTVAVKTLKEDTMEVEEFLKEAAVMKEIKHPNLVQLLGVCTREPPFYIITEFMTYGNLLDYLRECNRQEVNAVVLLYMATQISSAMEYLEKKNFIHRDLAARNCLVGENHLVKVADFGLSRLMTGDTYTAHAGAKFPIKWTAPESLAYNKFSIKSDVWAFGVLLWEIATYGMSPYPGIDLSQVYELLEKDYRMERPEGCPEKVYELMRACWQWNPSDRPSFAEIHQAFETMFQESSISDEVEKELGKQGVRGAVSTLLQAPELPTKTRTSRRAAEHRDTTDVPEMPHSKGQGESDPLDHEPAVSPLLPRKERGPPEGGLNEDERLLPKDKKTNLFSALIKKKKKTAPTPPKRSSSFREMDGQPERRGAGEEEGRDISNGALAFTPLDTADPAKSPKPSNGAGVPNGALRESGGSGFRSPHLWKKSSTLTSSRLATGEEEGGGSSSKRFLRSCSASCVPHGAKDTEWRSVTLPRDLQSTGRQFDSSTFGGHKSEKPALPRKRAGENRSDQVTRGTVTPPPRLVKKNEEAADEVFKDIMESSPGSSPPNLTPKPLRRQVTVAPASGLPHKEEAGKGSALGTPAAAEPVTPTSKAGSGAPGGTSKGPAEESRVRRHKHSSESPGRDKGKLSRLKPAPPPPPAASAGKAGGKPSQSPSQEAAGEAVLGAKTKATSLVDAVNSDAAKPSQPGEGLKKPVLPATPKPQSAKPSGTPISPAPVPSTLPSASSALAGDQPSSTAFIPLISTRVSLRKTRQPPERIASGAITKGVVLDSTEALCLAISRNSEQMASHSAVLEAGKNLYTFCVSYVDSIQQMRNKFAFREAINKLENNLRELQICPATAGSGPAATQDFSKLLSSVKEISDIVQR

[6] = target: Serine/threonine-protein kinase pim-1 (Homo sapiens, UniProt P11309)
Chain of Serine/threonine-protein kinase pim-1 (P11309 whole entry): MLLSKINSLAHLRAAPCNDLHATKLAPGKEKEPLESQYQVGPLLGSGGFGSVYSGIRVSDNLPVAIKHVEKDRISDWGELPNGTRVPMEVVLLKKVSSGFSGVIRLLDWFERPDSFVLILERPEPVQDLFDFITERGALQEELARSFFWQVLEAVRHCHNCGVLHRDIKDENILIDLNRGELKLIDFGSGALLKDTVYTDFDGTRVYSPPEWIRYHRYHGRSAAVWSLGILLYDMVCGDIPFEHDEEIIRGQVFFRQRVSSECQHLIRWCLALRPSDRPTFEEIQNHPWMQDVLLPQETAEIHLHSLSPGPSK

[7] = target: Dual specificity tyrosine-phosphorylation-regulated kinase 1A (Homo sapiens, UniProt Q13627)
[8] = target: RAC-alpha serine/threonine-protein kinase (Homo sapiens, UniProt P31749)
Chain of RAC-alpha serine/threonine-protein kinase (P31749 whole entry): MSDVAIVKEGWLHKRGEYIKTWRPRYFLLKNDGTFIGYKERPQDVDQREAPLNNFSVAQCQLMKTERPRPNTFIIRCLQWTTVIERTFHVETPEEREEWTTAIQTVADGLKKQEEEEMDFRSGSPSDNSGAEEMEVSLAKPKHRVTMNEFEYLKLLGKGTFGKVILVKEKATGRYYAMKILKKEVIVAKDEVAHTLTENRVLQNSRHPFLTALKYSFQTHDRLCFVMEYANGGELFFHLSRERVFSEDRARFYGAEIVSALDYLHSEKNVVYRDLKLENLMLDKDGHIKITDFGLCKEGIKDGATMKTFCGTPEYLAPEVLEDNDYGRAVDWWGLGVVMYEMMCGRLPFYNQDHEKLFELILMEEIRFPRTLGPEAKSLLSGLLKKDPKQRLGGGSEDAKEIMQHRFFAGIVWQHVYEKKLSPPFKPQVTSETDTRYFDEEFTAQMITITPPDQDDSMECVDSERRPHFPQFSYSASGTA

[9] = target: Tyrosine-protein kinase Lyn (Homo sapiens, UniProt P07948)
Chain of Tyrosine-protein kinase Lyn (P07948 whole entry): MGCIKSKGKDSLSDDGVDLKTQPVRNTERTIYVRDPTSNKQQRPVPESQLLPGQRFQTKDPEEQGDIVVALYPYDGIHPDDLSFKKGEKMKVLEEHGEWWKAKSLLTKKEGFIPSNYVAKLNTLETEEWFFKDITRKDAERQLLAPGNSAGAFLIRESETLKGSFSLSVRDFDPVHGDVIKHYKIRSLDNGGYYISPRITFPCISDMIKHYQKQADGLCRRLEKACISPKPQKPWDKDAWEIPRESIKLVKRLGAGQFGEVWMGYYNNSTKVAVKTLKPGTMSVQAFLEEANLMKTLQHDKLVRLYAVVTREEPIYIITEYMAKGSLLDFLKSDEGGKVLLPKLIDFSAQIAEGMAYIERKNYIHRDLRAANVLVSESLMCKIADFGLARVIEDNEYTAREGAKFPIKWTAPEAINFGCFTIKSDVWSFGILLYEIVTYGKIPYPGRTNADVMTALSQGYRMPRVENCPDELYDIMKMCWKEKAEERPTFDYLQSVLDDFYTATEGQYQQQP

[10] = target: T2, Mitogen-activated protein kinase kinase kinase 6 (Homo sapiens, UniProt O95382)
T2 sequence (O95382 whole entry): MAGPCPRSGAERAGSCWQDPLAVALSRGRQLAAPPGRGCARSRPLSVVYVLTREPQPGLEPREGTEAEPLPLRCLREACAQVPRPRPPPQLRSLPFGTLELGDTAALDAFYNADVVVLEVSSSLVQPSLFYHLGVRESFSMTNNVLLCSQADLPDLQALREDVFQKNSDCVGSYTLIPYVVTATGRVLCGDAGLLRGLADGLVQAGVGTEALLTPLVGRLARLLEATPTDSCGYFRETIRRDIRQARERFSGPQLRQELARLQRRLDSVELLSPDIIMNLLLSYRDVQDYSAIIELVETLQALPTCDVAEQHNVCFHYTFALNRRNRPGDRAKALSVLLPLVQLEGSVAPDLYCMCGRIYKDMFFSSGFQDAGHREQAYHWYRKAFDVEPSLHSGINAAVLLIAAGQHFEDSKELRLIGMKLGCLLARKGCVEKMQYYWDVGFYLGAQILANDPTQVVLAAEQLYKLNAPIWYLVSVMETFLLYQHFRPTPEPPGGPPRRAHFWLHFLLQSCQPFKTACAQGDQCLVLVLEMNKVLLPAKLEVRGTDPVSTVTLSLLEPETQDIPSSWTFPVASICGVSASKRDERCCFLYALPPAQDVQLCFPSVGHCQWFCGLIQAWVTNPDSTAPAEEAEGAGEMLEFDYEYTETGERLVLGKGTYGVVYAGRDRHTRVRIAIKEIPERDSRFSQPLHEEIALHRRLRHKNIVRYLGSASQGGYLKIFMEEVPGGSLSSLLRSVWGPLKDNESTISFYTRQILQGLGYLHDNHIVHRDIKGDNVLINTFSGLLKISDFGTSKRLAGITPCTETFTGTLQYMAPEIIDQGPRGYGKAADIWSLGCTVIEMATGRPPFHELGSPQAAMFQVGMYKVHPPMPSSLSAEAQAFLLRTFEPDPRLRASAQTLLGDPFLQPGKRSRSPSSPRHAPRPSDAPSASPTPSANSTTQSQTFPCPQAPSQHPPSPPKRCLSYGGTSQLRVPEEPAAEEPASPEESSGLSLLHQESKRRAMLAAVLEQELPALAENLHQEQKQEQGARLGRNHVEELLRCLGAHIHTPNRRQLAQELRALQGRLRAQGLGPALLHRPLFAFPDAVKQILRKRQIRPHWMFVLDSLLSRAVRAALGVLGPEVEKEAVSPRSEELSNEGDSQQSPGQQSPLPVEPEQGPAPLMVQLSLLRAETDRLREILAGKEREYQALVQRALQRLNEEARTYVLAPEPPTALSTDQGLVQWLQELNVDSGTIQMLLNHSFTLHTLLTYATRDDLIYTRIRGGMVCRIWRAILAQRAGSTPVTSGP

Measured: Kd

Chain of Ephrin type-A receptor 5 (P54756 whole entry): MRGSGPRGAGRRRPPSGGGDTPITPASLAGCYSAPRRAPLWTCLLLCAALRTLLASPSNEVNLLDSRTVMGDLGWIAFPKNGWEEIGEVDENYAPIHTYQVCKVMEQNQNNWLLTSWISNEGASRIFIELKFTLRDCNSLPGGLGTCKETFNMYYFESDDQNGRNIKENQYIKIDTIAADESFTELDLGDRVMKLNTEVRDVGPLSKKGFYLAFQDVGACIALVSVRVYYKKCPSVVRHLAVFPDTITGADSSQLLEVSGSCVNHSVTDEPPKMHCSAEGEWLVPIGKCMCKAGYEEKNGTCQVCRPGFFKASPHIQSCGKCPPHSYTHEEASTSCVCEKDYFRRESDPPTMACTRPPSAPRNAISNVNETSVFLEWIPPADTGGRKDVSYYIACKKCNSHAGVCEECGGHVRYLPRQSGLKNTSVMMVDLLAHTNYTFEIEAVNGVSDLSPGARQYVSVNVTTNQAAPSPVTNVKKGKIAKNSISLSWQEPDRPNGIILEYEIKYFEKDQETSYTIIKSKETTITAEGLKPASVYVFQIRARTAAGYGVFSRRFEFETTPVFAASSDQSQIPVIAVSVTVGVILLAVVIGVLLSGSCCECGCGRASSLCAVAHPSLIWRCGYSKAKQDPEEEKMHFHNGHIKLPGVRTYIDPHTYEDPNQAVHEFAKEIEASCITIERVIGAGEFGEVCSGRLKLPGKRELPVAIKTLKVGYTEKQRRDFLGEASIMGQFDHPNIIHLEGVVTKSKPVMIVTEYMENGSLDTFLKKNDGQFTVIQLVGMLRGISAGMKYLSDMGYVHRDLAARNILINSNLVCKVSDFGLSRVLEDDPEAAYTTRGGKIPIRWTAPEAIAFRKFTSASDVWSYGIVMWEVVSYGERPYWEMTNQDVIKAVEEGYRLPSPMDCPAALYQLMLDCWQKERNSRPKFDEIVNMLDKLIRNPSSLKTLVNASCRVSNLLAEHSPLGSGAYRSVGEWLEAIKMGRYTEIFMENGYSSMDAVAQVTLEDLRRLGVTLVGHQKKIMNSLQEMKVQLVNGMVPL

O=c1sn(-c2cccc3ccccc23)c(=O)n1Cc1ccccc1 [TIDEGLUSIB]
inactive: [1] > 30 µM | [2] > 30 µM | [3] > 30 µM | [4] > 30 µM | [5] > 30 µM | [6] > 30 µM | [7] > 30 µM | [8] > 30 µM | [9] > 30 µM | [10] > 30 µM

CO[C@H]1C[C@@H]2CC[C@@H](C)[C@@](O)(O2)C(=O)C(=O)N2CCCC[C@H]2C(=O)O[C@H]([C@H](C)C[C@@H]2CC[C@@H](OCCO)[C@H](OC)C2)CC(=O)[C@H](C)/C=C(\C)[C@@H](O)[C@@H](OC)C(=O)[C@H](C)C[C@H](C)/C=C/C=C/C=C/1C [EVEROLIMUS]
inactive: [1] > 30 µM | [2] > 30 µM | [3] > 30 µM | [4] > 30 µM | [5] > 30 µM | [6] > 30 µM | [7] > 30 µM | [8] > 30 µM | [9] > 30 µM | [10] > 30 µM

CN(C)C(=O)c1cc2cnc(Nc3ccc(N4CCNCC4)cn3)nc2n1C1CCCC1 [RIBOCICLIB]
inactive: [1] > 30 µM | [2] > 30 µM | [3] > 30 µM | [4] > 30 µM | [5] > 30 µM | [6] > 30 µM | [7] > 30 µM | [8] > 30 µM | [9] > 30 µM | [10] > 30 µM

CC(C)Nc1cc(-c2c[nH]c(C(=O)N[C@H](CO)c3cccc(Cl)c3)c2)c(Cl)cn1 [ULIXERTINIB]
inactive: [1] > 30 µM | [2] > 30 µM | [3] > 30 µM | [4] > 30 µM | [5] > 30 µM | [6] > 30 µM | [7] > 30 µM | [8] > 30 µM | [9] > 30 µM | [10] > 30 µM
